Source: patent US12492188B2, “1H-benzo[D]imidazole derivatives as TLR9 inhibitors for the treatment of fibrosis” (BRISTOL-MYERS SQUIBB COMPANY, priority 2020, dated 2025)
Read-outs that look alike come from different tables or passages of the source.

Columns and labels:
Format in all cases: cell-based
human TLR9 = target: T1, human TLR9 (Homo sapiens, UniProt Q9NR96); assay: TLR9 inhibition reporter assay (HEK-Blue cells, secreted embryonic alkaline phosphatase reporter)
T1 construct: host or cells: HEK-Blue cells (HEK293-derived reporter line)
T1 sequence (Q9NR96 26-1032): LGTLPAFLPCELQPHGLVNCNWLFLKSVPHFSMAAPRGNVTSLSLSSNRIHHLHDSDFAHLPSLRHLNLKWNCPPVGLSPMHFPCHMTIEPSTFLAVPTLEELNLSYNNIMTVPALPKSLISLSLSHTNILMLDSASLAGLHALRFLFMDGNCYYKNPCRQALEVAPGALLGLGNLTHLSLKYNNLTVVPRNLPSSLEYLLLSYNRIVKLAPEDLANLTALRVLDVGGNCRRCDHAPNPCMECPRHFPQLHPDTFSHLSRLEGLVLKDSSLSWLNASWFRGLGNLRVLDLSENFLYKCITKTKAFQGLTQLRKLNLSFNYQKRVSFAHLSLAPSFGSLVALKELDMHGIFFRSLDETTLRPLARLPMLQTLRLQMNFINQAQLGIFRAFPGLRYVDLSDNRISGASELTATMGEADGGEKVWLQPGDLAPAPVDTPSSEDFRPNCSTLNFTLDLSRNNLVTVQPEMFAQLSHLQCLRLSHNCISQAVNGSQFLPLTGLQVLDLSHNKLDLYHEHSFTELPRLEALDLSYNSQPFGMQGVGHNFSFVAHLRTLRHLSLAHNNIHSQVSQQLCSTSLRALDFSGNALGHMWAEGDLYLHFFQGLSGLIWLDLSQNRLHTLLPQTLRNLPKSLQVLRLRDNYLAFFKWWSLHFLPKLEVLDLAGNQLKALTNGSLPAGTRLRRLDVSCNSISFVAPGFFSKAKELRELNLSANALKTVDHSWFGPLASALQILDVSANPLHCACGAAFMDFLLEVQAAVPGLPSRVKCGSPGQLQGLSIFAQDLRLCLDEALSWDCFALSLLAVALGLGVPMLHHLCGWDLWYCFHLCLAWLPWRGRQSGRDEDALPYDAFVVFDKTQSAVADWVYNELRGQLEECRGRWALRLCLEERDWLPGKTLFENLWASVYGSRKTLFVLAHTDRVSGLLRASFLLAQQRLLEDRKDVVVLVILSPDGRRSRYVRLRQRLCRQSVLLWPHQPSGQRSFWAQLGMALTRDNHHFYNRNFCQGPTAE
In short: (§1)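 HEK-Blue cells overexpressing the respective receptor, with an NF-κB/AP-1-driven SEAP reporter, were pre-treated with compound (0.05 nM–50 μM) for 30 min at room temperature. Stimulation used gardiquimod 7.5 μM (TLR7), R848 15.9 μM (TLR8) or ODN2006 5 nM (TLR9); SEAP was read after 22 h at 37 °C as percent inhibition.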

human TLR8 = target: T2, human TLR8 (Homo sapiens, UniProt Q9NR97); assay: TLR8 inhibition reporter assay (HEK-Blue cells, secreted embryonic alkaline phosphatase reporter); settings: HEK-Blue cells overexpressing human TLR8, stimulated with R848 15.9 μM; read-out: TLR 8 IC50
T2 construct: host or cells: HEK-Blue cells (HEK293-derived reporter line)
T2 sequence (Q9NR97 27-1041): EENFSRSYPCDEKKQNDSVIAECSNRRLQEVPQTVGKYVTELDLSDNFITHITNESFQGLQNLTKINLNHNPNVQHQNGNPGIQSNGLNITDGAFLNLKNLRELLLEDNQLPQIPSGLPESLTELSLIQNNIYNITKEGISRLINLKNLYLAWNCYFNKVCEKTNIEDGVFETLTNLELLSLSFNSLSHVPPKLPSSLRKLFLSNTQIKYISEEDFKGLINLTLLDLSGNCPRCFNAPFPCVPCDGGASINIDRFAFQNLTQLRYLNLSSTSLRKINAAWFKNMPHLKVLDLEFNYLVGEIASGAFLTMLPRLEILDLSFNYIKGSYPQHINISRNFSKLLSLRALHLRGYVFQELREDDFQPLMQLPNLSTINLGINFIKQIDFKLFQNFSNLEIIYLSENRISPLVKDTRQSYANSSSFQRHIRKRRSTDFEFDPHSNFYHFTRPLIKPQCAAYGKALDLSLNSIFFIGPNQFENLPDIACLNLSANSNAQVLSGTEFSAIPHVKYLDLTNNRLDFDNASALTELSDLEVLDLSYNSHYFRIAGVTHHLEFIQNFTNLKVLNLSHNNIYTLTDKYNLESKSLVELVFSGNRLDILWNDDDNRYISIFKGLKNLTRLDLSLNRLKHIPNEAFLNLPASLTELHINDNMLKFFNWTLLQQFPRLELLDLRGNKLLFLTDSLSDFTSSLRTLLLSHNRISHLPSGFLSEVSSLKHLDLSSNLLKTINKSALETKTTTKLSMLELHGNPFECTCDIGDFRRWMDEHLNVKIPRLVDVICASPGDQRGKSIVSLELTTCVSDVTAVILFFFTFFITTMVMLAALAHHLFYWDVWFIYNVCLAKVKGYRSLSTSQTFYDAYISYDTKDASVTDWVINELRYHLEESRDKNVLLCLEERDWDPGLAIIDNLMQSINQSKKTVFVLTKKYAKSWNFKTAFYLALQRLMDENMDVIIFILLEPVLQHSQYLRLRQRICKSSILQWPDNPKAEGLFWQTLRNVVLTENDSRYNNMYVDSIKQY
In short: as §1

human TLR7 = target: T3, human TLR7 (Homo sapiens, UniProt Q9NYK1); assay: TLR7 inhibition reporter assay (HEK-Blue cells, secreted embryonic alkaline phosphatase reporter); settings: HEK-Blue cells overexpressing human TLR7, stimulated with gardiquimod 7.5 μM; read-out: TLR 7 IC50
T3 construct: host or cells: HEK-Blue cells (HEK293-derived reporter line)
T3 sequence (Q9NYK1 27-1049): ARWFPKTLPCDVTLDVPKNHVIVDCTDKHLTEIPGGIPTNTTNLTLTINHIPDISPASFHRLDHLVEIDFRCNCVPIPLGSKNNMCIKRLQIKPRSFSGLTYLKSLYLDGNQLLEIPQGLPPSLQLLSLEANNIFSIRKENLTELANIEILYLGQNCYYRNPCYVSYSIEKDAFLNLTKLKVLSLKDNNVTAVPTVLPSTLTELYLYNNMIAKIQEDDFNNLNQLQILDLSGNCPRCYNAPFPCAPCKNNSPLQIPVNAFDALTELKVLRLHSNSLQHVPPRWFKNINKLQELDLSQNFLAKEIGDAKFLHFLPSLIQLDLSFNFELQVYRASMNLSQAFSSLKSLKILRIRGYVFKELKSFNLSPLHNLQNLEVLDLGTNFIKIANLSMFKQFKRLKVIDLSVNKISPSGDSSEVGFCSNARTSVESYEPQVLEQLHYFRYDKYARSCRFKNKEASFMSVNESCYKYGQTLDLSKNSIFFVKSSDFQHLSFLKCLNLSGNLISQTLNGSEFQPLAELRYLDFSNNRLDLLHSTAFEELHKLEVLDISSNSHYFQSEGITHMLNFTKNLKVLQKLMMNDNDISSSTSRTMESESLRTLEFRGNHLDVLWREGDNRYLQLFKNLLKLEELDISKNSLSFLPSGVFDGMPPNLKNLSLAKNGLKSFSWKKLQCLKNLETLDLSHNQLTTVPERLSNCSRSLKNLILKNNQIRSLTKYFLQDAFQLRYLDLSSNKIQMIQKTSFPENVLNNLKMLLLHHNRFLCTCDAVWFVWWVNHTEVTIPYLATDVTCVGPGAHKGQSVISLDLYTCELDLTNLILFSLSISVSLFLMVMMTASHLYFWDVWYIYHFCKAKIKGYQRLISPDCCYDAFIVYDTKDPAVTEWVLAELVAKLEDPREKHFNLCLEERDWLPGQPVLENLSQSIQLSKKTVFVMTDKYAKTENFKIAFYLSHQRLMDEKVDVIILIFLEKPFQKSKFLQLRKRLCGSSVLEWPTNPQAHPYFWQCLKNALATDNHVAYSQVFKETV
In short: as §1

[1] = HEK-Blue cells overexpressing human TLR9, stimulated with ODN2006 5 nM, read-out: TLR 9 IC50

## COc1ccc(-c2nc3c(C)cc(C4CCN(C5CC6CCC(C5)N6C5COC5)CC4)cc3n2C)cc1OC (single isomer, unassigned) [Example 165, 2-(3,4-dimethoxyphenyl)-1,4-dimethyl-6-(1-(8-(oxetan-3-yl)-8-azabicyclo[3.2.1]octan-3-yl)piperidin-4-yl)-1H-benzo[d]imidazole]
Human TLR9
  IC50: 1.3 µM
Human TLR9; [1]
  IC50: 1.3 µM
Human TLR8
  IC50: > 25 µM
Human TLR7
  IC50: > 25 µM

## COc1ccc(-c2nc3c(C)cc(C4CCN(C5CC6CCC(C5)N6C5CCOCC5)CC4)cc3n2C)cc1OC (single isomer, unassigned) [Example 166, 2-(3,4-dimethoxyphenyl)-1,4-dimethyl-6-(1-(8-(tetrahydro-2H-pyran-4-yl)-8-azabicyclo[3.2.1]octan-3-yl)piperidin-4-yl)-1H-benzo[d]imidazole]
Human TLR9
  IC50: 0.04 µM
Human TLR9; [1]
  IC50: 0.04 µM
Human TLR8
  IC50: > 25 µM
Human TLR7
  IC50: 4.7 µM

## COc1ccc(-c2nc3c(C)cc(C4CCN(C5CC6CCC(C5)N6C5CCOCC5)CC4)cc3n2C)cc1OC (single isomer, unassigned) [Example 167, 2-(3,4-dimethoxyphenyl)-1,4-dimethyl-6-(1-(8-(tetrahydro-2H-pyran-4-yl)-8-azabicyclo[3.2.1]octan-3-yl)piperidin-4-yl)-1H-benzo[d]imidazole]
Human TLR9
  IC50: 0.79 µM
Human TLR9; [1]
  IC50: 0.788 µM
Human TLR8
  IC50: > 25 µM
Human TLR7
  IC50: > 25 µM

## COCCN1C2CCC1CC(N1CCC(c3cc(C)c4nc(-c5ccc(OC)c(OC)c5)n(C)c4c3)CC1)C2 (single isomer, unassigned) [Example 168, 2-(3,4-dimethoxyphenyl)-6-(1-(8-(2-methoxyethyl)-8-azabicyclo[3.2.1]octan-3-yl)piperidin-4-yl)-1,4-dimethyl-1H-benzo[d]imidazole]
Human TLR9
  IC50: 0.051 µM
Human TLR9; [1]
  IC50: 0.051 µM
Human TLR8
  IC50: > 25 µM
Human TLR7
  IC50: 14 µM

## COCCN1C2CCC1CC(N1CCC(c3cc(C)c4nc(-c5ccc(OC)c(OC)c5)n(C)c4c3)CC1)C2 (single isomer, unassigned) [Example 169, 2-(3,4-dimethoxyphenyl)-6-(1-(8-(2-methoxyethyl)-8-azabicyclo[3.2.1]octan-3-yl)piperidin-4-yl)-1,4-dimethyl-1H-benzo[d]imidazole]
Human TLR9
  IC50: 0.2 µM
Human TLR9; [1]
  IC50: 0.204 µM
Human TLR8
  IC50: 23.7 µM
Human TLR7
  IC50: 10.5 µM

## CC(C)CN1C2CCC1CC(N1CCC(c3ccc4c(nc(-c5ccc(S(C)(=O)=O)cc5)n4C)c3F)CC1)C2 (single isomer, unassigned) [Example 189, 4-fluoro-5-(1-(8-isobutyl-8-azabicyclo[3.2.1]octan-3-yl)piperidin-4-yl)-1-methyl-2-(4-(methylsulfonyl)phenyl)-1H-benzo[d]imidazole]
Human TLR9
  IC50: 0.15 µM
Human TLR9; [1]
  IC50: 0.154 µM
Human TLR8
  IC50: > 50 µM
Human TLR7
  IC50: > 50 µM

## CC(C)CN1C2CCC1CC(N1CCC(c3ccc4c(nc(-c5ccc(S(C)(=O)=O)cc5)n4C)c3F)CC1)C2 (single isomer, unassigned) [Example 190, 4-fluoro-5-(1-(8-isobutyl-8-azabicyclo[3.2.1]octan-3-yl)piperidin-4-yl)-1-methyl-2-(4-(methylsulfonyl)phenyl)-1H-benzo[d]imidazole]
Human TLR9
  IC50: 2.6 µM
Human TLR9; [1]
  IC50: 2.63 µM
Human TLR8
  IC50: > 50 µM
Human TLR7
  IC50: > 50 µM

## Cn1c(-c2ccc(S(C)(=O)=O)cc2)nc2c(F)c(C3CCN(C4CC5CCC(C4)N5CC4CC4)CC3)ccc21 (single isomer, unassigned) [Example 191, 5-(1-(8-(cyclopropylmethyl)-8-azabicyclo[3.2.1]octan-3-yl)piperidin-4-yl)-4-fluoro-1-methyl-2-(4-(methylsulfonyl)phenyl)-1H-benzo[d]imidazole]
Human TLR9
  IC50: 0.096 µM
Human TLR9; [1]
  IC50: 0.096 µM
Human TLR8
  IC50: > 50 µM
Human TLR7
  IC50: 3.8 µM

## Cn1c(-c2ccc(S(C)(=O)=O)cc2)nc2c(F)c(C3CCN(C4CC5CCC(C4)N5CC4CC4)CC3)ccc21 (single isomer, unassigned) [Example 192, 5-(1-(8-(cyclopropylmethyl)-8-azabicyclo[3.2.1]octan-3-yl)piperidin-4-yl)-4-fluoro-1-methyl-2-(4-(methylsulfonyl)phenyl)-1H-benzo[d]imidazole]
Human TLR9
  IC50: 0.19 µM
Human TLR9; [1]
  IC50: 0.186 µM
Human TLR8
  IC50: > 50 µM
Human TLR7
  IC50: > 50 µM

## Cn1c(-c2ccc(S(C)(=O)=O)cc2)nc2c(F)c(C3CCN(C4CC5CCC(C4)N5CC4COC4)CC3)ccc21 (single isomer, unassigned) [Example 193, 4-fluoro-1-methyl-2-(4-(methylsulfonyl)phenyl)-5-(1-(8-(oxetan-3-ylmethyl)-8-azabicyclo[3.2.1]octan-3-yl)piperidin-4-yl)-1H-benzo[d]imidazole]
Human TLR9
  IC50: 0.082 µM
Human TLR9; [1]
  IC50: 0.082 µM
Human TLR8
  IC50: > 50 µM
Human TLR7
  IC50: > 50 µM
